The values that follow come from article PMC5688156, “The natural product carolacton inhibits folate-dependent C1 metabolism by targeting FolD/MTHFD” (Nature Communications, 2017).

In brackets after ≈: the same amount, converted by molar mass.

In assay [1] the test system is E. coli (TolC-deficient). As to the kind of experiment: MIC determination on E. coli (TolC-deficient). The settings on record: 16 h. The format is cell-based, Escherichia coli. On the procedure:
First, the minimum inhibitory concentration (MIC) of carolacton on the E. coliΔtolC strain was determined. We started to develop the resistant mutants on CASO agar (peptone from casein 15 g/L, peptone from soybean 5 g/L, NaCl 5 g/L and agar 15 g/L; pH 7.3) plates supplemented with 4× the MIC concentration of carolacton (0.5 μg/mL) as selection pressure. Different numbers of E. coliΔtolC cells from 1 × 10^7 to 10^9 were spread on caso agar plates with carolacton. After 7 days, E. coliΔtolC colonies, which were resistant to carolacton, started to form on the agar plates. The mutants picked were inoculated in liquid MHB medium (beef extract 2 g/L, peptone from casein 17.5 g/L and corn starch 1.5 g/L, pH 7.4) supplemented with carolacton.
The determination of MICs was performed as described elsewhere. In brief, E. coli strains were treated with carolacton in serial dilution in either the presence or absence of sub-inhibitory concentrations of polymyxin B nonapeptide (PMBN; 3 µg/mL) and/or phenylalanine–arginine β-napthylamide (PAβN; 20 µg/mL) for 16 h at 37 °C in Mueller–Hinton broth. The MICs were assessed by visual inspection of the plates.

Assay [2] deals with T1, hsMTHFD2 (Homo sapiens, UniProt P13995).
T1 construct: His-tag (vector pHis-TEV) (cleaved yes); made in house; host or cells: E. coli BL21 (DE3)
T1 sequence (P13995 36-350): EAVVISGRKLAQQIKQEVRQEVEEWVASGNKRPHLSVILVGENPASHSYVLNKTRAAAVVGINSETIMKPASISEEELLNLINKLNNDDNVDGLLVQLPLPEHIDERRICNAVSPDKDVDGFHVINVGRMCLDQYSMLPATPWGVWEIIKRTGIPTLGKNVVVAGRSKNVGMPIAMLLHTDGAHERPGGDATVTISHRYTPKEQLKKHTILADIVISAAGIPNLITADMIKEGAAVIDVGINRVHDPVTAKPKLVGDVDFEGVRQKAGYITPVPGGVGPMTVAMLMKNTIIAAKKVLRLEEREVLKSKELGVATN
Kind of assay: SPR binding to hsMTHFD2. The protocol:
All surface plasmon resonance (SPR) experiments described in this study were performed on a Biacore X100 system. Different FolDs with or without His-tag were coupled on CM5 sensor chips (GE Healthcare) by the amine coupling method using a kit from GE Healthcare Life Sciences (Freiburg, Germany). A pH scouting process was performed before protein immobilization to test the most appropriate buffer and the protein concentration for protein coupling. Finally, 20 μg/mL of ecFolD in 10 mM maleate buffer (pH 6.8), 30 μg/mL of ecFolD Q98H in 10 mM maleate buffer (pH 6.3), 40 μg/mL of ecFolD K54N in 10 mM maleate buffer (pH 5.8), 20 μg/mL of spFolD in 10 mM maleate buffer (pH 6.0) and 15 μg/mL of MTHFD2 (His-tag cleaved) in 10 mM maleate buffer (pH 6.8) were used for coupling. In the protein immobilization procedure, the contact time was calculated based on the pH scouting results to achieve ~3000–5000 relative resonance units (RU). The buffer used in the SPR assays was 1× HBS-P buffer (10 mM HEPES pH 7.4, 150 mM NaCl, 0.05% Tween 20). The 1 mM stock solution of carolacton was prepared in 1× HBS-P buffer and diluted to different concentration ranges by two-fold serial dilution. In the SPR assay, the association time was 180 s and the dissociation time was 600 s. Data analysis was performed using the Biacore evaluation software. […]

Take `CO[C@H](CC(=O)O)[C@@H](C)C(=O)[C@H](C)/C=C(\C)[C@H]1OC(=O)[C@H](O)[C@H](O)/C=C/[C@H](C)CCC[C@@H]1C` [carolacton]: the minimum inhibitory concentration (MIC) in assay [1] (Escherichia coli) was found to be 0.13 µg/mL (≈ 0.277 µM); in assay [1] (no additive, cation-adjusted Mueller–Hinton broth, 37 °C), 0.125 µg/mL (≈ 0.267 µM). The koff in assay [2] was determined as 0.0222 s⁻¹. Also, the affinity in assay [2] (1:1 interaction model fit of association and dissociation signals), expressed as Kd, was 19 nM.
